Laboratory results taken from the NIST ThermoML archive (doi:10.1021/je900219w).

Key:
[1] = xn = mol fraction of the nth substance listed; settings: 101 kPa, Liquid; for viscosity: Capillary tube (Ostwald / Ubbelohde) method; for molar volume: Pycnometric method
[2] = 101 kPa, Liquid; for viscosity: Capillary tube (Ostwald / Ubbelohde) method; for molar volume: Pycnometric method

CCCCCCO [hexan-1-ol] + Cc1cccc(C)c1
[1], x1 = 1
Settings | molar volume [m3/mol] | viscosity [mPa·s]
303.15 K | 0.0001259 | 3.829
313.15 K | 0.000127 | 2.879
323.15 K | 0.0001281 | 2.215

Cc1cccc(C)c1 [1,3-dimethylbenzene] + CCCCCCO
[1]
Settings | molar volume, 303.15 K [m3/mol] | molar volume, 313.15 K [m3/mol] | molar volume, 323.15 K [m3/mol] | viscosity, 303.15 K [mPa·s] | viscosity, 313.15 K [mPa·s] | viscosity, 323.15 K [mPa·s]
x2 = 0 | 0.0001241 | 0.0001254 | 0.0001266 | 0.5501 | 0.4944 | 0.4472
x2 = 0.1 | 0.0001243 | 0.0001256 | 0.0001269 | 0.5979 | 0.5309 | 0.4743
x2 = 0.2 | 0.0001246 | 0.0001258 | 0.0001272 | 0.6825 | 0.5975 | 0.5277
x2 = 0.3 | 0.0001248 | 0.000126 | 0.0001273 | 0.7998 | 0.6894 | 0.6009
x2 = 0.4 | 0.0001249 | 0.0001262 | 0.0001275 | 0.9537 | 0.8068 | 0.6925
x2 = 0.5 | 0.0001251 | 0.0001263 | 0.0001276 | 1.161 | 0.9645 | 0.8141
x2 = 0.6 | 0.0001253 | 0.0001265 | 0.0001277 | 1.442 | 1.173 | 0.97
x2 = 0.7 | 0.0001254 | 0.0001266 | 0.0001278 | 1.833 | 1.457 | 1.179
x2 = 0.8 | 0.0001255 | 0.0001267 | 0.0001279 | 2.357 | 1.833 | 1.448
x2 = 0.9 | 0.0001257 | 0.0001269 | 0.000128 | 3.032 | 2.309 | 1.797

CCCCCCO [hexan-1-ol]
[2]
Settings | molar volume [m3/mol] | viscosity [mPa·s]
303.15 K | 0.0001259 | 3.829
313.15 K | 0.000127 | 2.879
323.15 K | 0.0001281 | 2.215

Cc1cccc(C)c1 [1,3-dimethylbenzene]
[2]
Settings | molar volume [m3/mol] | viscosity [mPa·s]
303.15 K | 0.0001241 | 0.5501
313.15 K | 0.0001254 | 0.4944
323.15 K | 0.0001266 | 0.4472
